Results on 26 molecules are retold here after patent US8431565B2 (priority 2007, dated 2013).

What is called EC50 is the concentration that produces a half-maximal response.

The target of the first experiment is human CB1 receptor (hCB1) (Homo sapiens, UniProt P21554). In kind it is cell-based.
Sequence of human CB1 receptor (hCB1) (P21554 whole entry): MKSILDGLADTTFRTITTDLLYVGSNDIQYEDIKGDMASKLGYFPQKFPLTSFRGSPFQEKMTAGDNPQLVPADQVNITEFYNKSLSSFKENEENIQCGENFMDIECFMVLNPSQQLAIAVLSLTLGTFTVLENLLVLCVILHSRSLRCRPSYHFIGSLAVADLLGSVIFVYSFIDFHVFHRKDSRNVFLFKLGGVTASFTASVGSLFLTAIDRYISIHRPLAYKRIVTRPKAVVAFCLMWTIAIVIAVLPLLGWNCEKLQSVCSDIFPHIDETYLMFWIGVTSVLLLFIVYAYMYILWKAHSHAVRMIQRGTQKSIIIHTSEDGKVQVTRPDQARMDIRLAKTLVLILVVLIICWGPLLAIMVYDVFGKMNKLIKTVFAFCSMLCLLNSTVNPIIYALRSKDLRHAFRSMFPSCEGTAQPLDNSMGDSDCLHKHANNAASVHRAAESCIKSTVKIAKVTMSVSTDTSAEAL
`CNC(=O)[C@@H](NC(=O)c1nc(-c2cnn(S(=O)(=O)c3ccccc3)c2)n2c1CN(C)CCC2)C(C)(C)C` [Compound 776, (S)-N-(3,3-dimethyl-1-(methylamino)-1-oxobutan-2-yl)-8-methyl-3-(1-(phenylsulfonyl)-1H-pyrazol-4-yl)-6,7,8,9-tetrahydro-5H-imidazo[1,5-a][1,4]diazepine-1-carboxamide]: the EC50 is over 10000 nM.
With `CNC(=O)[C@@H](NC(=O)c1nc(-c2ccccc2N)n2c1CN(C)CCC2)C(C)(C)C` [Compound 646, (S)-3-(2-aminophenyl)-N-(3,3-dimethyl-1-(methylamino)-1-oxobutan-2-yl)-8-methyl-6,7,8,9-tetrahydro-5H-imidazo[1,5-a][1,4]diazepine-1-carboxamide], the EC50 was over 10000 nM.
Regarding `CNC(=O)[C@@H](NC(=O)c1nc(C2CCN(S(=O)(=O)c3ccccc3)CC2)n2c1CN(C)CCC2)C(C)(C)C` [Compound 727, (S)-N-(3,3-dimethyl-1-(methylamino)-1-oxobutan-2-yl)-8-methyl-3-(1-(phenylsulfonyl)piperidin-4-yl)-6,7,8,9-tetrahydro-5H-imidazo[1,5-a][1,4]diazepine-1-carboxamide], the half-maximal effective concentration (EC50) is over 10000 nM.
`CN1CCCn2c(-c3cc(Cl)ccc3F)nc(C(=O)NC(CN3CCCC3)C(C)(C)C)c2C1` (centres unmarked) [Compound 720, 3-(5-chloro-2-fluorophenyl)-N-(3,3-dimethyl-1-(pyrrolidin-1-yl)butan-2-yl)-8-methyl-6,7,8,9-tetrahydro-5H-imidazo[1,5-a][1,4]diazepine-1-carboxamide] returned an EC50 of over 10000 nM.
Turning to `CNC(=O)[C@@H](NC(=O)c1nc(-c2ccccc2C)n2c1CN(C)CCC2)C(C)(C)C` [Compound 647, (S)-N-(3,3-dimethyl-1-(methylamino)-1-oxobutan-2-yl)-8-methyl-3-o-tolyl-6,7,8,9-tetrahydro-5H-imidazo[1,5-a][1,4]diazepine-1-carboxamide], the EC50 is over 10000 nM.
On to `CN1CCCn2c(-c3cc(Cl)ccc3F)nc(C(=O)N[C@H](C(=O)N[C@H]3CCC[C@H]3O)C(C)(C)C)c2C1` [Compound 840, 3-(5-chloro-2-fluorophenyl)-N-((S)-1-((1S,2R)-2-hydroxycyclopentylamino)-3,3-dimethyl-1-oxobutan-2-yl)-8-methyl-6,7,8,9-tetrahydro-5H-imidazo[1,5-a][1,4]diazepine-1-carboxamide], for which the EC50 was over 10000 nM.
With `CC1CN(C(=O)c2nc(-c3cc(F)c(F)cc3F)n3c2CN(C)CCC3)CC(C)O1` (centres unmarked) [Compound 854, (2,6-dimethylmorpholino)(8-methyl-3-(2,4,5-trifluorophenyl)-6,7,8,9-tetrahydro-5H-imidazo[1,5-a][1,4]diazepin-1-yl)methanone], the EC50 was over 10000 nM.

Another experiment deals with T1, rat CB2 receptor (rCB2) (Rattus norvegicus, UniProt Q9QZN9).
T1 sequence (Q9QZN9 1-360): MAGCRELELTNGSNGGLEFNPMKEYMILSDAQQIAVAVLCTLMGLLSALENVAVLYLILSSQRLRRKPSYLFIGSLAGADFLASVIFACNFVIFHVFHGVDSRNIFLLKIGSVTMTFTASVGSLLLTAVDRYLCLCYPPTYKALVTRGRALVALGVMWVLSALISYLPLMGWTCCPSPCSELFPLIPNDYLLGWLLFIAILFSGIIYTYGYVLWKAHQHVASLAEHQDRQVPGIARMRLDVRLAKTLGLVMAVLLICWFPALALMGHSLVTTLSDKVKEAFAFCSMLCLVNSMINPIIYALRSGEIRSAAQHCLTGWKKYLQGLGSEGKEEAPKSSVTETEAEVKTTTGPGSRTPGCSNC
As for `CCN1CCn2c(-c3ccccc3)nc(C(=O)N[C@H](C(=O)NC)C(C)(C)C)c2C1` [Compound 149, (S)-N-(3,3-dimethyl-1-(methylamino)-1-oxobutan-2-yl)-7-ethyl-3-phenyl-5,6,7,8-tetrahydroimidazo[1,5-a]pyrazine-1-carboxamide], the EC50 fell in the range of 10 to 100 nM.
Consider `CNC(=O)[C@@H](NC(=O)c1nc(-c2ccc(Cl)cc2)n2c1CN(C)CC2)C(C)(C)C` [Compound 49, (S)-3-(4-chlorophenyl)-N-(3,3-dimethyl-1-(methylamino)-1-oxobutan-2-yl)-7-methyl-5,6,7,8-tetrahydroimidazo[1,5-a]pyrazine-1-carboxamide], for which the EC50 fell in the range of 10 to 100 nM.
The same measure, in the same setting: the result for `CC(C)CN1CCn2c(-c3ccccc3)nc(C(=O)N[C@@H](CO)C(C)(C)C)c2C1` [Compound 68, (R)-N-(1-hydroxy-3,3-dimethylbutan-2-yl)-7-isobutyl-3-phenyl-5,6,7,8-tetrahydroimidazo[1,5-a]pyrazine-1-carboxamide] reads 0.1 to 10 nM; that for `CNC(=O)[C@@H](NC(=O)c1nc(-c2ccccc2)n2c1CN(C(C)C)CC2)C(C)(C)C` [Compound 85, (S)-N-(3,3-dimethyl-1-(methylamino)-1-oxobutan-2-yl)-7-isopropyl-3-phenyl-5,6,7,8-tetrahydroimidazo[1,5-a]pyrazine-1-carboxamide], 10 to 100 nM.
`C[C@@H](NC(=O)c1nc(-c2ccccc2)n2c1CN(C(=O)C1CCOC1)CC2)C1CCCCC1` (stereo partly drawn) [Compound 139, N-((R)-1-cyclohexylethyl)-3-phenyl-7-(tetrahydrofuran-3-carbonyl)-5,6,7,8-tetrahydroimidazo[1,5-a]pyrazine-1-carboxamide] yielded an EC50 of 10 to 100 nM.
In turn, `CNC(=O)[C@@H](NC(=O)c1nc(-c2ccc(C)cc2F)n2c1CN(C)CC2)C(C)(C)C` [Compound 249, (S)-N-(3,3-dimethyl-1-(methylamino)-1-oxobutan-2-yl)-3-(2-fluoro-4-methylphenyl)-7-methyl-5,6,7,8-tetrahydroimidazo[1,5-a]pyrazine-1-carboxamide] showed a concentration for a half-maximal effect (EC50) of 10 to 100 nM.
The molecule `CC(C)(C)C(=O)N1CCn2c(-c3ccccc3)nc(C(=O)NC3C4(C)CCC(C4)C3(C)C)c2C1` (centres unmarked) [Compound 123, 3-phenyl-7-pivaolyl-N-(1,3,3-trimethylbicyclo[2.2.1]heptan-2-yl)-5,6,7,8-tetrahydroimidazo[1,5-a]pyrazine-1-carboxamide] returned an EC50 of 10 to 100 nM.
`Cc1nnc([C@@H](NC(=O)c2nc(-c3ccccc3)n3c2CN(CC(C)C)CC3)C(C)(C)C)o1` [Compound 202, (S)-N-(2,2-dimethyl-1-(5-methyl-1,3,4-oxadiazol-2-yl)propyl)-7-isobutyl-3-phenyl-5,6,7,8-tetrahydroimidazo[1,5-a]pyrazine-1-carboxamide] came in with an EC50 of 10 to 100 nM.
In the case of `O=C(NC1CCCCC1)c1nc(-c2ccccc2)n2c1CN(CC1CCOC1)CC2` (centres unmarked) [Compound 141, N-cyclohexyl-3-phenyl-7-((tetrahydrofuran-3-yl)methyl)-5,6,7,8-tetrahydroimidazo[1,5-a]pyrazine-1-carboxamide], the half-maximal effective concentration (EC50) was 10 to 100 nM.
With `CNC(=O)[C@@H](NC(=O)c1nc(-c2ccc(C(C)(C)C)cc2)n2c1CN(C)CCC2)C(C)(C)C` [Compound 414, (S)-3-(4-tert-butylphenyl)-N-(3,3-dimethyl-1-(methylamino)-1-oxobutan-2-yl)-8-methyl-6,7,8,9-tetrahydro-5H-imidazo[1,5-a][1,4]diazepine-1-carboxamide], the EC50 was 10 to 100 nM.
Same read-out and setting: the result for `COC(=O)N1CCn2c(-c3ccccc3)nc(C(=O)N[C@H](C)C3CCCCC3)c2C1` [Compound 185, (R)-methyl 1-(1-cyclohexylethylcarbamoyl)-3-phenyl-5,6-dihydroimidazo[1,5-a]pyrazine-7(8H)-carboxylate] reads 10 to 100 nM.
The same measure, in the same setting: the value for `Cc1noc([C@@H](NC(=O)c2nc(-c3ccccc3)n3c2CN(C2CC2)CC3)C(C)(C)C)n1` [Compound 198, (S)-7-cyclopropyl-N-(2,2-dimethyl-1-(3-methyl-1,2,4-oxadiazol-5-yl)propyl)-3-phenyl-5,6,7,8-tetrahydroimidazo[1,5-a]pyrazine-1-carboxamide] was 0.1 to 10 nM.
For `CC(C)(C)CNC(=O)c1nc(-c2ccccc2)n2c1CN(S(=O)(=O)c1ccccc1)CC2` [Compound 104, N-neopentyl-3-phenyl-7-(phenylsulfonyl)-5,6,7,8-tetrahydroimidazo[1,5-a]pyrazine-1-carboxamide], the EC50 lay within 10 to 100 nM.
Turning to `CNC(=O)[C@@H](NC(=O)c1nc(-c2ccc(Cl)cc2F)n2c1CN(CC(C)C)CCC2)C(C)(C)C` [Compound 322, (S)-3-(4-chloro-2-fluorophenyl)-N-(3,3-dimethyl-1-(methylamino)-1-oxobutan-2-yl)-8-isobutyl-6,7,8,9-tetrahydro-5H-imidazo[1,5-a][1,4]diazepine-1-carboxamide], the EC50 is 10 to 100 nM.
As for `CNC(=O)[C@@H](NC(=O)c1nc(-c2ccccc2)n2c1CN(S(=O)(=O)c1ccccc1F)CC2)C(C)(C)C` [Compound 98, (S)-N-(3,3-dimethyl-1-(methylamino)-1-oxobutan-2-yl)-7-(2-fluorophenylsulfonyl)-3-phenyl-5,6,7,8-tetrahydroimidazo[1,5-a]pyrqazine-1-carboxamide], the EC50 was in the range of 10 to 100 nM.
`CNC(=O)[C@@H](NC(=O)c1nc(-c2ccccc2)n2c1CN(CC(C)C)CC2)C(C)(C)C` [Compound 148, (S)-N-(3,3-dimethyl-1-(methylamino)-1-oxobutan-2-yl)-7-isobutyl-3-phenyl-5,6,7,8-tetrahydroimidazo[1,5-a]pyrazine-1-carboxamide]: the EC50 was in the range of 10 to 100 nM.
`CNC(=O)[C@@H](NC(=O)c1nc(-c2ccccc2)n2c1CN(C(=O)C(C)C)CC2)C(C)(C)C` [Compound 191, (S)-N-(3,3-dimethyl-1-(methylamino)-1-oxobutan-2-yl)-7-isobutyryl-3-phenyl-5,6,7,8-tetrahydroimidazo[1,5-a]pyrazine-1-carboxamide] yielded an EC50 of 10 to 100 nM.
Still for that read-out and setting: the value for `CNC(=O)[C@@H](NC(=O)c1nc(-c2ccsc2)n2c1CN(S(=O)(=O)c1ccc(F)cc1)CC2)C(C)(C)C` [Compound 109, (S)-N-(3,3-dimethyl-1-(methylamino)-1-oxobutan-2-yl)-7-(4-fluorophenylsulfonyl)-3-(thiophen-3-yl)-5,6,7,8-tetrahydroimidazo[1,5-a]pyrazine-1-carboxamide] was 10 to 100 nM.
As to `CNC(=O)[C@@H](NC(=O)c1nc(-c2ccccc2)n2c1CN(C1CC1)CC2)C(C)(C)C` [Compound 197, (S)-7-cyclopropyl-N-(3,3-dimethyl-1-(methylamino)-1-oxobutan-2-yl)-3-phenyl-5,6,7,8-tetrahydroimidazo[1,5-a]pyrazine-1-carboxamide], the EC50 lay within 10 to 100 nM.
